According to PMC8587999, “Assessment of the Activity of Decoquinate and Its Quinoline-O-Carbamate Derivatives against Toxoplasma gondii In Vitro and in Pregnant Mice Infected with T. gondii Oocysts” (Molecules, 2021):
Like-named read-outs stand apart in the source and are kept apart here.

Key:
[1] = test system: T. gondii β-gal tachyzoites; assay: IC50 determination with T. gondii β-gal tachyzoites grown in HFF monolayers; type: cell-based, Toxoplasma gondii; conditions: for IC50: Toxoplasma gondii
Experimental: The efficacy of DCQ in vitro was determined using T. gondii β-gal constitutively expressing β-galactosidase grown in HFF monolayers. […] The low IC50 values and the low degree of cytotoxicity against HFF host cells in vitro encouraged us to examine the efficacy of oral treatment of CD1 mice infected with T. gondii oocysts with DCQ at 10 mg/kg/day for 5 days.
Due to the negative effects of treatment with DCQ, we investigated the efficacy in vitro of the three DCQ derivatives RMB054, RMB055 and RMB060 (Figure 1) in comparison to DCQ. Different concentrations of DCQ and the derivatives in DMSO were added to HFF either concomitantly with infection of T. gondii-β-gal tachyzoites, or 3 h after infection. […] The corresponding dose-response curves are shown in Supplementary Materials Figure S1. The viability of uninfected HFF was not impaired by the compounds up to concentrations of 5 µM (DCQ and RMB054) or 10 µM (RMB055, RMB060) (Table 1).
(§1) HFF cytotoxicity assessments and IC50 determinations using cultures of Tg-β-gal tachyzoites grown in HFF were carried out as described previously. IC50 values were calculated with the logit-log-transformation of the relative growth and subsequent regression analysis was done with the corresponding software tool contained in Microsoft Excel software package (Microsoft, Seattle, WA). For the long-term treatments, HFF grown in T25 culture flasks were infected with 5 × 10^5 TgMe49 tachyzoites, and after 4.5 h 0.5 μM DCQ, RMB054 or RMB060 were added. Infected cultures treated with the highest corresponding concentration of DMSO (0.5%) served as controls. Prolonged treatments for up to 24 days were carried out, with the addition of fresh medium containing the respective drug every 3–4 days. Cultures were inspected by light microscopy on a daily basis. On days 3, 6, 9, 13, 16, 20 and 24, the compound-containing medium was removed, and parasites were maintained without drug pressure until host cell lysis (plaque formation) was evident.

[2] = test system: human foreskin fibroblasts (HFF); assay: HFF cytotoxicity assessment; type: cell-based; conditions: for IC50: Homo sapiens, Fibroblast, uninfected HFF, no decline in viability over the concentration range
Experimental: as §1

[3] = Pregnancy interference test in non-infected BALB/c mice; type: in vivo; conditions: for No. of Non-Pregnant Mice/No. of Mice / No. of Pregnant Mice/No. of Mice: non-infected BALB/c; for Litter Size: total pups per group
Experimental: Eighteen female and 9 male BALB/c mice, all 8 weeks of age, were used. The females were oestrus-synchronized for 3 days by the Whitten effect and were mated by housing 2 females and 1 male for 72 h in one cage. Males were removed after mating and females were randomly assigned to 3 experimental groups of 6 mice each: DCQ; RMB060; placebo. On days 9–13 post-mating, DCQ and RMB060 were supplied at 10 mg/kg/day in 100 μL corn oil by oral gavage. The placebo group only received corn oil. Mice were observed and weighed on several days and on day 18, post-mating pregnant females were separated into single cages. […] Dams and pups were observed daily and data on fertility, litter size, neonatal and postnatal mortality was recorded for the following 2 weeks. All mice were euthanized in a chamber by isoflurane/CO2 inhalation.

[4] = test system: T. gondii Me49 tachyzoites; assay: Long-term drug treatment of TgMe49-infected HFF in vitro; type: cell-based, Toxoplasma gondii
Experimental: as §1, with “Prolonged treatments for up to 24 days were carried out, with the addition of fresh medium containing the respective drug every 3–4 days.” left out

[5] = test system: T. gondii Me49 tachyzoites; assay: TEM of T. gondii Me49 tachyzoites cultured in HFF under drug treatment; type: cell-based, Toxoplasma gondii
Experimental: For transmission electron microscopy (TEM), HFF grown in T25 culture flasks were infected with 10^7 TgMe49 tachyzoites and incubated for 3 h at 37 °C and 5% CO2. Subsequently, cultures were exposed to continuous treatment of 6h, 24 h, 48 h, and 72 h with 0.5 μM DCQ, RMB054 or RMB060, and 1 µM RMB055. Infected cultures treated with DMSO served as controls. TEM preparations were performed as described earlier. Samples were observed on a Philips CM 12 (Philips Research, Eindhoven, Holland) or a FEI Tecnai Spirit BioTwin TEM (TESCAN GmbH, Dormund, Germany), both operating at 80 kV.

[6] = test system: BAG1 (bradyzoite antigen 1) expression in T. gondii Me49; assay: Immunofluorescence staining for BAG1 expression in TgMe49-infected HFF; type: cell-based, Toxoplasma gondii; conditions: treatment for 48 h
Experimental: For immunofluorescence microscopy, 4 × 10^4 HFF were grown on glass coverslips for 24 h to form a sub-confluent monolayer and were exposed to 1.2 × 10^5 TgMe49 tachyzoites during 4 h at 37 °C and 5% CO2. The medium was replaced and supplemented with 20 nM DCQ and RMB060, or medium containing DMSO as control. Cultures infected with TgPgSp1 (low passage number) served as positive control for BAG1 (bradyzoite antigen 1) expression. Infected cells were cultured for 16 h, 24 h, and 48 h and fixed and labelled for immunofluorescence staining as described previously. A polyclonal rabbit anti-BAG1 antiserum was applied at 1:200 dilution, followed by a goat-anti-rabbit fluorescein-isothiocyanate conjugate (1:300), the monoclonal mouse anti-TgSAG1 antibody was diluted (1:100), followed by goat anti-mouse conjugated to tetramethylrhodamine-isothiocyanate at 1:300. Subsequently, samples were mounted in H-1200 Vectashield mounting medium (Vector Laboratories, Burlingame, CA, USA) containing 4,6-diamidino-2-phenylindole and were viewed on a Nikon E80i fluorescence microscope (Tokyo, Japan). Processing of images was performed using Openlab 5.5.2 (Improvision, PerkinElmer, Waltham, MA, USA) and the ImageJ software, version 1.53 m.

[7] = parameters: method as in https://www.drugs.com/pro/deccox.html; conditions: rats; ref https://www.drugs.com/pro/deccox.html; cited from earlier work
T. gondii = conditions: cited from earlier work
[8] = test system: liver stage of Plasmodium berghei malaria parasites; parameters: method as in doi:10.1038/s42004-018-0062-7; conditions: cited from earlier work
[9] = HFF vs T. gondii, compound applied prior to / concomitantly with infection
[10] = Tg-β-gal in HFF, compound added 3 h post-infection, [upper, lower limit of 95% CI], read-out: IC50 T. gondii (nM) [LS, LI] Compound Added 3 h Post-infection
[11] = Tg-β-gal in HFF, compound added prior to / concomitantly with infection, [upper, lower limit of 95% CI], read-out: IC50 T. gondii (nM) [LS, LI] Compound Added Prior to Infection
[12] = short-term growth assays, added with infection or 3 h after, read-out: IC50 T. gondii, range depending on the time point of initiation of treatment
[13] = 10 mg/kg/day oral, days 9–13 post-mating

Row | SMILES | Selectivity Index [1, 9] | IC50 [1, 10] [nM] | IC50 [1, 11] [nM] | IC50 [1, 12] [nM] | Concentration up to which viability of uninfected HFF was not impaired [2] [µM] | IC50 [2] [nM] | Interference in pregnancy [3, 13] | No. of Non-Pregnant Mice/No. of Mice [3, 13] | No. of Pregnant Mice/No. of Mice [3, 13] | Litter Size [3, 13] | Expression of the bradyzoite marker BAG1 [6] | also measured
1 | CCCCCCCCCCOc1cc2c(O)c(C(=O)OCC)cnc2cc1OCC [DCQ, ethyl 6-decyloxy-7-ethoxy-4-oxo-1H-quinoline-3-carboxylate] | >4545 | 4.7 | 1.1 | 1.1 to 4.7 | 5 | > 5000 | strong interference in pregnancy outcome | 4/6 | 2/6 | 7 | induced the expression of BAG1 | Neonatal Mortality ([3]; female, BALB/c, mouse, in vivo, po, 10 mg/kg/day): 0/7; Parasiticidal effect after long-term treatment ([4]; 500 nM, 52 days): no parasiticidal effect; Parasiticidal effect in long-term treatment assays ([4]; up to 500 nM per day for 24 days): not parasiticidal; Ultrastructural alterations of the parasite mitochondrion (TEM) ([5]; within 24 h): distinct alterations in the parasite mitochondrion; LD50 [7]: > 5000 mg/kg; Effect of treatment of infected cultures, T. gondii RH strain (T. gondii; 240 nM): tissue cyst formation; IC50 (T. gondii; read-out: IC50, inhibition of T. gondii proliferation in vitro): 12 nM
2 | CCCCCCCCCCOc1cc2c(OC(=O)N3CCN(S(C)(=O)=O)C3=O)c(C(=O)OCC)cnc2cc1OCC [RMB060] | >142,857 | 0.7 | 0.07 | 0.07 to 0.7 | 10 | > 10000 | only minor interference in pregnancy | 2/6 | 4/6 | 27 | expression of the bradyzoite marker BAG1 in the cytoplasm of some, but not all, parasites | Concentration that caused a complete growth inhibition in dose response assays ([1]; T. gondii tachyzoites in HFF): 500 nM; Selectivity Index ([1]; compound added to intracellular parasites at 3 h post-infection): > 14,000; Postnatal Mortality [3, 13]: 0/24; Neonatal Mortality ([3]; first 2 days post-partum, 10 mg/kg/day oral, days 9–13 post-mating): 3/27; Killing of tachyzoites after long-term exposure ([4]; 300 nM for 52 days): did not result in the complete killing of all tachyzoites; Concentration to which tachyzoites adapted, fold the IC50 ([4]; exposure for longer timespans, parasites resumed proliferation and formed lysis plaques): up to 4286 fold; Ultrastructural alterations of the parasite mitochondrion (TEM) ([5]; 500 nM for 6 h, treatment started 3 h after infection): mitochondrial matrix had a less electron dense appearance and dissolved cristae became evident; IC50 (T. gondii; read-out: previously reported IC50 against T. gondii): 1.1 nM; Activity against the liver stage of Plasmodium berghei [8]: highly active
